# In PubChem BioAssay (NCI):
#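 Compound exposure: 48 hours, 5 concentrations, 96-well plates. Here, GI50 denotes the concentration required for 50% inhibition of growth. TGI is the concentration that stops growth completely.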
# What was measured:
# Assay in all cases: NCI tumour cell line growth inhibition, 48 h
# HT29 colon = test system: HT29 colon
# M14 melanoma = test system: M14 melanoma
# SK-OV-3 ovarian = test system: SK-OV-3 ovarian
# OVCAR-3 ovarian = test system: OVCAR-3 ovarian
# SK-MEL-28 melanoma = test system: SK-MEL-28 melanoma
# NCI-H460 lung = test system: NCI-H460 lung
# NCI-H522 lung = test system: NCI-H522 lung
# MALME-3M melanoma = test system: MALME-3M melanoma
# RXF 393 renal = test system: RXF 393 renal
# HS 578T breast = test system: HS 578T breast
# BT-549 breast = test system: BT-549 breast
# HOP-92 NSCLC = test system: HOP-92 NSCLC
# UACC-62 melanoma = test system: UACC-62 melanoma
# K-562 leukemia = test system: K-562 leukemia
# MDA-MB-231 breast = test system: MDA-MB-231 breast
# SN12C renal = test system: SN12C renal
# DU-145 prostate = test system: DU-145 prostate
# SNB-19 CNS = test system: SNB-19 CNS
# IGROV1 ovarian = test system: IGROV1 ovarian
# COLO 205 colon = test system: COLO 205 colon
# UO-31 renal = test system: UO-31 renal
# TK-10 renal = test system: TK-10 renal
# RPMI-8226 leukemia = test system: RPMI-8226 leukemia
# MCF7 breast = test system: MCF7 breast
# HOP-62 NSCLC = test system: HOP-62 NSCLC
# SF-295 CNS = test system: SF-295 CNS
# SF-539 CNS = test system: SF-539 CNS
# 786-0 renal = test system: 786-0 renal
# HCC-2998 colon = test system: HCC-2998 colon
# SW-620 colon = test system: SW-620 colon
# OVCAR-8 ovarian = test system: OVCAR-8 ovarian
# T-47D breast = test system: T-47D breast
# SF-268 CNS = test system: SF-268 CNS
# NCI-H23 lung = test system: NCI-H23 lung
# MDA-MB-435 = test system: MDA-MB-435
# U251 CNS = test system: U251 CNS
# UACC-257 melanoma = test system: UACC-257 melanoma
# KM12 colon = test system: KM12 colon
# CAKI-1 renal = test system: CAKI-1 renal
# HL-60(TB) leukemia = test system: HL-60(TB) leukemia
# SK-MEL-2 melanoma = test system: SK-MEL-2 melanoma
# MOLT-4 leukemia = test system: MOLT-4 leukemia
# MDA-MB-468 breast = test system: MDA-MB-468 breast
# OVCAR-4 ovarian = test system: OVCAR-4 ovarian
# LOX IMVI melanoma = test system: LOX IMVI melanoma
# HCT-15 colon = test system: HCT-15 colon
# OVCAR-5 ovarian = test system: OVCAR-5 ovarian
# PC-3 prostate = test system: PC-3 prostate
# HCT-116 colon = test system: HCT-116 colon
# SR leukemia = test system: SR leukemia
# ACHN renal = test system: ACHN renal
# NCI/ADR-RES ovarian = test system: NCI/ADR-RES ovarian
# NCI-H226 lung = test system: NCI-H226 lung
# SK-MEL-5 melanoma = test system: SK-MEL-5 melanoma
# SNB-75 CNS = test system: SNB-75 CNS
# A498 renal = test system: A498 renal
# EKVX NSCLC = test system: EKVX NSCLC
# A549 NSCLC = test system: A549 NSCLC
# CCRF-CEM leukemia = test system: CCRF-CEM leukemia
smiles,measurement,setting,value
COc1ccc(C(=O)/C=C/c2cc(C(F)(F)F)cc(C(F)(F)F)c2)cc1S(N)(=O)=O,GI50,HT29 colon,1.26 µM
same,TGI,HT29 colon,2.77 µM
same,GI50,M14 melanoma,1.92 µM
same,TGI,M14 melanoma,4.85 µM
same,GI50,SK-OV-3 ovarian,3.65 µM
same,TGI,SK-OV-3 ovarian,16.3 µM
same,GI50,OVCAR-3 ovarian,1.56 µM
same,TGI,OVCAR-3 ovarian,3.31 µM
same,GI50,SK-MEL-28 melanoma,1.67 µM
same,TGI,SK-MEL-28 melanoma,3.07 µM
same,GI50,NCI-H460 lung,1.56 µM
same,TGI,NCI-H460 lung,3.28 µM
same,GI50,NCI-H522 lung,1.56 µM
same,TGI,NCI-H522 lung,3.24 µM
same,GI50,MALME-3M melanoma,1.81 µM
same,TGI,MALME-3M melanoma,3.33 µM
same,GI50,RXF 393 renal,1.76 µM
same,TGI,RXF 393 renal,3.34 µM
same,GI50,HS 578T breast,2.68 µM
same,TGI,HS 578T breast,9.86 µM
same,GI50,BT-549 breast,2.27 µM
same,TGI,BT-549 breast,3.93 µM
same,GI50,HOP-92 NSCLC,1.98 µM
same,TGI,HOP-92 NSCLC,5.8 µM
same,GI50,UACC-62 melanoma,1.51 µM
same,TGI,UACC-62 melanoma,3 µM
same,GI50,K-562 leukemia,0.788 µM
same,TGI,K-562 leukemia,> 100 µM
same,GI50,MDA-MB-231 breast,1.57 µM
same,TGI,MDA-MB-231 breast,3.11 µM
same,GI50,SN12C renal,1.47 µM
same,TGI,SN12C renal,2.86 µM
same,GI50,DU-145 prostate,2.05 µM
same,TGI,DU-145 prostate,4.83 µM
same,GI50,SNB-19 CNS,1.6 µM
same,TGI,SNB-19 CNS,2.98 µM
same,GI50,IGROV1 ovarian,1.74 µM
same,TGI,IGROV1 ovarian,3.32 µM
same,GI50,COLO 205 colon,2.02 µM
same,TGI,COLO 205 colon,3.94 µM
same,GI50,UO-31 renal,1.45 µM
same,TGI,UO-31 renal,2.76 µM
same,GI50,TK-10 renal,2.05 µM
same,TGI,TK-10 renal,3.86 µM
same,GI50,RPMI-8226 leukemia,0.558 µM
same,TGI,RPMI-8226 leukemia,> 100 µM
same,GI50,MCF7 breast,0.439 µM
same,TGI,MCF7 breast,1.68 µM
same,GI50,HOP-62 NSCLC,2.22 µM
same,TGI,HOP-62 NSCLC,4.4 µM
same,GI50,SF-295 CNS,1.7 µM
same,TGI,SF-295 CNS,3.1 µM
same,GI50,SF-539 CNS,1.68 µM
same,TGI,SF-539 CNS,3.07 µM
same,GI50,786-0 renal,1.64 µM
same,TGI,786-0 renal,3.32 µM
same,GI50,HCC-2998 colon,1.54 µM
same,TGI,HCC-2998 colon,2.87 µM
same,GI50,SW-620 colon,1.03 µM
same,TGI,SW-620 colon,2.44 µM
same,GI50,OVCAR-8 ovarian,1.49 µM
same,TGI,OVCAR-8 ovarian,3.87 µM
same,GI50,T-47D breast,1.69 µM
same,TGI,T-47D breast,3.55 µM
same,GI50,SF-268 CNS,2.38 µM
same,TGI,SF-268 CNS,7.48 µM
same,GI50,NCI-H23 lung,1.55 µM
same,TGI,NCI-H23 lung,3.01 µM
same,GI50,MDA-MB-435,1.35 µM
same,TGI,MDA-MB-435,2.97 µM
same,GI50,U251 CNS,1.29 µM
same,TGI,U251 CNS,2.62 µM
same,GI50,UACC-257 melanoma,1.51 µM
same,TGI,UACC-257 melanoma,3.18 µM
same,GI50,KM12 colon,2.07 µM
same,TGI,KM12 colon,4.92 µM
same,GI50,CAKI-1 renal,1.58 µM
same,TGI,CAKI-1 renal,3.36 µM
same,GI50,HL-60(TB) leukemia,1.75 µM
same,TGI,HL-60(TB) leukemia,6.29 µM
same,GI50,SK-MEL-2 melanoma,1.74 µM
same,TGI,SK-MEL-2 melanoma,3.25 µM
same,GI50,MOLT-4 leukemia,1.79 µM
same,TGI,MOLT-4 leukemia,9.16 µM
same,GI50,MDA-MB-468 breast,1.54 µM
same,TGI,MDA-MB-468 breast,2.91 µM
same,GI50,OVCAR-4 ovarian,1.85 µM
same,TGI,OVCAR-4 ovarian,4.44 µM
same,GI50,LOX IMVI melanoma,0.573 µM
same,TGI,LOX IMVI melanoma,1.78 µM
same,GI50,HCT-15 colon,0.893 µM
same,TGI,HCT-15 colon,2.38 µM
same,GI50,OVCAR-5 ovarian,1.84 µM
same,TGI,OVCAR-5 ovarian,3.36 µM
same,GI50,PC-3 prostate,2.19 µM
same,TGI,PC-3 prostate,5.99 µM
same,GI50,HCT-116 colon,0.655 µM
same,TGI,HCT-116 colon,2.3 µM
same,GI50,SR leukemia,0.498 µM
same,TGI,SR leukemia,> 100 µM
same,GI50,ACHN renal,1.54 µM
same,TGI,ACHN renal,2.91 µM
same,GI50,NCI/ADR-RES ovarian,1.51 µM
same,TGI,NCI/ADR-RES ovarian,3.72 µM
same,GI50,NCI-H226 lung,2.14 µM
same,TGI,NCI-H226 lung,4.59 µM
same,GI50,SK-MEL-5 melanoma,1.73 µM
same,TGI,SK-MEL-5 melanoma,3.15 µM
same,GI50,SNB-75 CNS,1.38 µM
same,TGI,SNB-75 CNS,3.33 µM
same,GI50,A498 renal,16.9 µM
same,TGI,A498 renal,30.5 µM
same,GI50,EKVX NSCLC,1.58 µM
same,TGI,EKVX NSCLC,2.97 µM
same,GI50,A549 NSCLC,1.83 µM
same,TGI,A549 NSCLC,5.64 µM
same,GI50,CCRF-CEM leukemia,0.299 µM
same,TGI,CCRF-CEM leukemia,> 100 µM
